Laboratory results reported in ChEMBL document CHEMBL4002576, “Tetrahydropyranodiquinolin-8-amines as new, non hepatotoxic, antioxidant, and acetylcholinesterase inhibitors for Alzheimer's disease therapy” (Eur J Med Chem, 2017).
Calls of active or inactive are those of the source. No cut-off for these calls is given here.

Tests used:
Acetylcholinesterase [1] = molecular target: Acetylcholinesterase (Electrophorus electricus, UniProt O42275)
Description: Inhibition of Electrophorus electricus AChE using acetylthiocholine iodide as substrate pretreated for 10 mins followed by substrate addition measured after 15 mins by spectrophotometry based Ellman method

Cholinesterase = Cholinesterase (Equus caballus, UniProt P81908); test: Inhibition of horse serum BuChE using butyrylthiocholine as substrate pretreated for 10 mins followed by substrate addition measured after 15 mins by spectrophotometry based Ellman method
Sequence of Cholinesterase (P81908 whole entry): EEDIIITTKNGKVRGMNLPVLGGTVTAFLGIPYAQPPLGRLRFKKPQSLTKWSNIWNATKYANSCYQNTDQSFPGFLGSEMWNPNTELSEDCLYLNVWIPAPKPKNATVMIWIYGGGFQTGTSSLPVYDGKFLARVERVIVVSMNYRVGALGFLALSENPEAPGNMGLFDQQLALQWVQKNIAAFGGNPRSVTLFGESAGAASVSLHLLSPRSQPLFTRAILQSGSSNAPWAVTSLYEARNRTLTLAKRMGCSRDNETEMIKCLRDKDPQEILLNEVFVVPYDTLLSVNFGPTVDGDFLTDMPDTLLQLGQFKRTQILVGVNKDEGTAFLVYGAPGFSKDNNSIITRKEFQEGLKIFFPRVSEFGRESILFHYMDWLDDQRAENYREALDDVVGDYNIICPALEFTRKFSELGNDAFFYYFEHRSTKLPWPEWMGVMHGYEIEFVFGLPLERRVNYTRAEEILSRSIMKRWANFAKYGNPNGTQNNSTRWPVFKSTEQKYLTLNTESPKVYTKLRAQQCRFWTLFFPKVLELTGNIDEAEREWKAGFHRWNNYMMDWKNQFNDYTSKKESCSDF

Acetylcholinesterase [2] = molecular target: T1, Acetylcholinesterase (Homo sapiens, UniProt P22303); test: Inhibition of recombinant human AChE expressed in HEK293 cells using acetylthiocholine iodide as substrate pretreated for 5 mins followed by substrate addition measured after 5 mins by spectrophotometry based Ellman method
T1 sequence (P22303 whole entry): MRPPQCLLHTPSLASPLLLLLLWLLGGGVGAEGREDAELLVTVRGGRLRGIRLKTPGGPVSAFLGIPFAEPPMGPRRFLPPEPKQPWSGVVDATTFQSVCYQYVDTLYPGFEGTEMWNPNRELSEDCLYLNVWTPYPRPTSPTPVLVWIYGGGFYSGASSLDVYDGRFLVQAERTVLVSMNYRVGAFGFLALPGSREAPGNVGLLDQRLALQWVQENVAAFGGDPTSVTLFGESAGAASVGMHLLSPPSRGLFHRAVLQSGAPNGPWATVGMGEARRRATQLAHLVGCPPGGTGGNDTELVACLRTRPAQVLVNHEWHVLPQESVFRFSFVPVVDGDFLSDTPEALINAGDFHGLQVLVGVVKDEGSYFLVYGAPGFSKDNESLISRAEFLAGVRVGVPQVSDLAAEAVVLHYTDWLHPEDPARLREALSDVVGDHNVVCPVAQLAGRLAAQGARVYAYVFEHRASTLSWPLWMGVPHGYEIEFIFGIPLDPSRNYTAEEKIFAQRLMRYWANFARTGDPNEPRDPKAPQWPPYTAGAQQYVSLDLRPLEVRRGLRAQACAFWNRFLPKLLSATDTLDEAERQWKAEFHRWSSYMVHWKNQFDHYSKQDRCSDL

in vitro [3] = conditions: human, primary hepatocytes
Description: Cytotoxicity against human primary hepatocytes assessed as cell viability at 3 uM measured after 2 hrs by trypan blue assay relative to control

Acetylcholinesterase [4] = molecular target: T1, Acetylcholinesterase; test: Non-competitive inhibition of recombinant human AChE expressed in HEK293 cells using varying levels of acetylthiocholine iodide as substrate pretreated for 5 mins followed by substrate addition measured after 5 mins by Lineweaver-burk plot analysis
in vitro [5] = conditions: human, primary hepatocytes; remark: listed apart in the source
Description: Cytotoxicity against human primary hepatocytes assessed as cell viability at 0.1 uM measured after 2 hrs by trypan blue assay relative to control

[6] = Metal chelating activity assessed as compound-Fe2+ complex formation at 10 uM in presence of FeSO4 after 20 hrs by UV-visible spectrophotometric analysis; format: functional
physchem = conditions: PAMPA, pH 7.4
Description: Permeability of the compound at 100 uM at pH 7.4 measured after 6 hrs by PAMPA

in vitro [7] = conditions: human, primary hepatocytes; remark: listed apart in the source
Description: Cytotoxicity against human primary hepatocytes assessed as cell viability at 1 uM measured after 2 hrs by trypan blue assay relative to control

[8] = Metal chelating activity assessed as compound-Cu2+ complex formation at 10 uM in presence of CuSO4 after 60 mins by UV-visible spectrophotometric analysis; format: functional
in vitro [9] = conditions: human, primary hepatocytes; remark: listed apart in the source
Description: Cytotoxicity against human primary hepatocytes assessed as cell viability at 30 uM measured after 2 hrs by trypan blue assay relative to control

in vitro [10] = conditions: human, primary hepatocytes; remark: listed apart in the source
Description: Cytotoxicity against human primary hepatocytes assessed as cell viability at 100 uM measured after 2 hrs by trypan blue assay relative to control

[11] = Metal chelating activity assessed as compound-Fe2+ complex formation at 10 uM in presence of FeSO4 after 60 mins by UV-visible spectrophotometric analysis; format: functional
[12] = Metal chelating activity assessed as compound-Cu2+ complex formation at 10 uM in presence of CuSO4 after 20 hrs by UV-visible spectrophotometric analysis; format: functional
in vitro [13] = conditions: human, primary hepatocytes; remark: listed apart in the source
Description: Cytotoxicity against human primary hepatocytes assessed as cell viability at 10 uM measured after 2 hrs by trypan blue assay relative to control

Sequence of Acetylcholinesterase (Electrophorus electricus, UniProt O42275) (O42275 whole entry): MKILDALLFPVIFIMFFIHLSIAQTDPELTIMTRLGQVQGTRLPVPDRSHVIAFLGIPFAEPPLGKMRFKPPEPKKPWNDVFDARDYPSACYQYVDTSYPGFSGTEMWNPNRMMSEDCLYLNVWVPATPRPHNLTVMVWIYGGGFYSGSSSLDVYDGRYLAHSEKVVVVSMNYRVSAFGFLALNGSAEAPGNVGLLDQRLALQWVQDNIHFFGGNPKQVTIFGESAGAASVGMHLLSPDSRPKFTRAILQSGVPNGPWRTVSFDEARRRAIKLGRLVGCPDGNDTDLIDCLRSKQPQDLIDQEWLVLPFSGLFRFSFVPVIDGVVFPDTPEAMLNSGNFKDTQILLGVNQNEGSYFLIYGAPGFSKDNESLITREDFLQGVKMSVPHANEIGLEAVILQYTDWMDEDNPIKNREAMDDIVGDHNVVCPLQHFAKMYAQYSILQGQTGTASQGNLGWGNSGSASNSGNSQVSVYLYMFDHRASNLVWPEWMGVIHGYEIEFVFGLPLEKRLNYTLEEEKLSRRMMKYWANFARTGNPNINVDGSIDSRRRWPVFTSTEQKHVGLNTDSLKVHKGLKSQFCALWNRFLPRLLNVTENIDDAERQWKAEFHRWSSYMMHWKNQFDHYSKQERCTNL

| Compound | IC50 (Acetylcholinesterase [1]) | IC50 (Cholinesterase) | IC50 (Cholinesterase; read-out: IC50) | IC50 (Acetylcholinesterase [2]; read-out: IC50) | other results |
| --- | --- | --- | --- | --- | --- |
| Nc1c2c(nc3c1C(c1c(Cl)cccc1Cl)c1ccc4cccnc4c1O3)CCCC2 (stereo not drawn) | 100 nM | Not Active | – | – | – |
| COc1ccccc1C1c2ccc3cccnc3c2Oc2nc3c(c(N)c21)CCCC3 (stereo not drawn) | 80 nM | – | 1510 nM | – | – |
| Nc1c2c(nc3c1C(c1ccccc1)c1ccc4cccnc4c1O3)CCCC2 (stereo not drawn) | 60 nM | – | 1110 nM | 1730 nM | – |
| Nc1c2c(nc3c1C(c1ccccc1Br)c1ccc4cccnc4c1O3)CCCC2 (stereo not drawn) | 140 nM | – | 210 nM | – | – |
| Nc1c2c(nc3c1C(c1ccc([N+](=O)[O-])cc1)c1ccc4cccnc4c1O3)CCCC2 (stereo not drawn) | 240 nM | Not Active | – | – | – |
| Nc1c2c(nc3c1C(c1cccc(F)c1)c1ccc4cccnc4c1O3)CCCC2 (stereo not drawn) | 90 nM | Not Active | – | 2200 nM | – |
| Cc1ccc(C2c3ccc4cccnc4c3Oc3nc4c(c(N)c32)CCCC4)cc1 (stereo not drawn) | 40 nM | – | 530 nM | 2850 nM | – |
| Nc1c2c(nc3c1C(c1ccccc1F)c1ccc4cccnc4c1O3)CCCC2 (stereo not drawn) | 110 nM | – | 630 nM | – | – |
| Nc1c2c(nc3c1C(c1ccncc1)c1ccc4cccnc4c1O3)CCCC2 (stereo not drawn) | 470 nM | Not Active | – | – | IC50 (Acetylcholinesterase [2]; hek293): Not Active |
| Nc1c2c(nc3c1C(c1cccnc1Br)c1ccc4cccnc4c1O3)CCCC2 (stereo not drawn) | 190 nM | – | 2860 nM | – | IC50 (Acetylcholinesterase [2]; hek293): Not Active |
| COc1cccc(C2c3ccc4cccnc4c3Oc3nc4c(c(N)c32)CCCC4)c1 (stereo not drawn) | 40 nM | – | 1300 nM | 750 nM | viability at 2 h, 3 µM (in vitro [3]): 83%; Ki (Acetylcholinesterase [4]): 870 nM; viability at 2 h, 0.1 µM (in vitro [5]): 89%; Activity [6]: inactive; Papp at 6 h, 100 µM (physchem): 5.41 ×10⁻⁶ cm/s; viability at 2 h, 1 µM (in vitro [7]): 84%; Activity [8]: inactive; viability at 2 h, 30 µM (in vitro [9]): 99%; viability at 2 h, 100 µM (in vitro [10]): 89%; Activity [11]: inactive; Activity [12]: inactive; viability at 2 h, 10 µM (in vitro [13]): 89% |
| COc1ccc(C2c3ccc4cccnc4c3Oc3nc4c(c(N)c32)CCCC4)cc1 (stereo not drawn) | 40 nM | – | 1300 nM | 1510 nM | – |
